# Results as given in patent US20160176867A1, “MODIFIED BET-PROTEIN-INHIBITING DIHYDROQUINOXALINONES AND DIHYDROPYRIDOPYRAZINONES” (BAYER PHARMA AKTIENGESELLSCHAFT, priority 2013, published 2016).
# Experiments:
# [1] = test system: MOLP-8 cells; test: Cell proliferation assay (alamarBlue), MOLP-8; format: cell-based; settings: Homo sapiens; MOLP-8 (multiple myeloma), 120 hours
# Procedure, shortened: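 MOLP-8 cells plated at 4000 cells/well in RPMI1640 with 20% FCS, read after overnight culture, then treated with dilutions from 1E-5 to 1E-8 M for 120 hours at 37° C. Viability by alamarBlue fluorescence (ex 530/em 590 nm); initial reads subtracted, compared with buffer-treated cells, and IC50 calculated for 50% proliferation inhibition.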
# [2] = test system: CHL-1 cells; test: Cell proliferation assay (alamarBlue), CHL-1; format: cell-based; settings: Homo sapiens; CHL-1 (melanoma, BRAF wild-type), 96 hours
# Protocol: In accordance with the invention, the ability of the substances to inhibit cell proliferation was determined. Cell viability was determined by means of the alamarBlue® reagent (Invitrogen) in a Victor X3 Multilabel Reader (Perkin Elmer). The excitation wavelength was 530 nm and the emission wavelength […].
# The CHL-1 cells (ATCC, CRL-9446) were sown at a concentration of 1000 cells/well in 100 μl of growth medium (DMEM with glutamine, 10% FCS) on 96-well microtitre plates.
# After overnight incubation at 37° C., the fluorescence values were determined (CI values). Then the plates were treated with various substance dilutions (1E-5 M, 3E-6 M, 1E-6 M, 3E-7 M, 1E-7 M, 3E-8 M, 1E-8 M) and incubated at 37° C. over 96 hours (MOLM-13, B16F10, CHL-1 cells) or 120 hours (MOLP-8 cells). Subsequently, the fluorescence values were determined (CO values). For the data analysis, the CI values were subtracted from the CO values and the results were compared between cells which had been treated with various dilutions of the substance or only with buffer solution. The IC50 values (substance concentration needed for 50% inhibition of cell proliferation) were calculated therefrom.
# [3] = test system: B16F10 cells; test: Cell proliferation assay (alamarBlue), B16F10; format: cell-based; settings: Mus musculus, B16-F10; B16F10 (melanoma, BRAF wild-type), 96 hours
# Procedure, shortened: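 B16F10 cells in DMEM with 10% FCS were exposed to seven concentrations from 1E-5 to 1E-8 M for 96 hours at 37 °C. Viability was read with alamarBlue (ex 530/em 590 nm), and day-0 signal was subtracted. IC50 was derived relative to buffer-treated cells.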
# [4] = test system: MOLM-13 cells; test: Cell proliferation assay (alamarBlue), MOLM-13; format: cell-based; settings: Homo sapiens; MOLM-13 (acute myeloid leukaemia), 96 hours
# Procedure, shortened: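 Cells in RPMI1640 with 10% FCS, read by alamarBlue fluorescence (ex 530, em 590 nm) after overnight plating and again after 96 h compound exposure at 37° C (1E-5 to 1E-8 M). Baseline-subtracted signal compared with buffer-treated cells to derive IC50.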
# [5] = target: T1, BRD4 bromo domain 2 [BRD4(2)] (Homo sapiens, UniProt O60885); test: BRD4/acetylated peptide H4 binding assay (TR-FRET), BRD4 bromo domain 2; settings: inhibition of BRD4(2)/Ac-H4 peptide interaction
# T1 construct: N-terminally His6-tagged BRD4(2) (amino acids 357-445); made in house; host or cells: E. coli
# Procedure, shortened: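 IC50 comes from a 4-parameter fit over 0.1 nM–20 μM in duplicate, normalised to DMSO and no-protein controls. TR-FRET (Eu-streptavidin/anti-His-XL665) tracks His-tagged BRD4(2) 357-445 at 100 nM binding Ac-H4 peptide in HEPES pH 7.5 buffer. Incubation was 1 h at 22 °C, then at 4 °C ≥3 h up to overnight.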
SMILES,IC50 [3] [nM],IC50 [4] [nM],IC50 [5] [nM],IC50 [1] [nM],IC50 [2] [nM]
"CNS(=O)(=O)c1cccc(Nc2ccc3c(n2)N(C2CCOCC2)[C@H](C)C(=O)N3C)c1 [Example 39, 3-{[(3R)-1,3-dimethyl-2-oxo-4-(tetrahydro-2H-pyran-4-yl)-1,2,3,4-tetrahydropyrido[2,3-b]pyrazin-6-yl]amino}-N-methylbenzenesulphon-amide]",149,90,135,91,63
"C[C@@H]1C(=O)N(C)c2ccc(Nc3cccc(S(=O)(=O)NC4CCN(C)CC4)c3)nc2N1C1CCCCCC1 [Example 48, 3-{[(3R)-4-cycloheptyl-1,3-dimethyl-2-oxo-1,2,3,4-tetrahydropyrido-[2,3-b]pyrazin-6-yl]amino}-N-(1-methylpiperidin-4-yl)benzenesulphonamide]",586,240,101,197,111
"CC(C)CN1c2nc(Nc3cccc(S(=O)(=O)N[C@H]4CC[C@H](N5CCN(CC6CC6)CC5)CC4)c3)ccc2N(C)C(=O)[C@H]1C [Example 45, N-{trans-4-[4-(cyclopropylmethyl)-piperazin-1-yl]cyclohexyl}-3-{[(3R)-4-isobulyl-1,3-dimethyl-2-oxo-1,2,3,4-tetrahydropyrido[2,3-b]pyrazin-6-yl]amino}-benzenesulphonamide]",393,126,148,67,81
"COCCN1c2nc(Nc3cccc(S(=O)(=O)N4CCOCC4)c3)ccc2N(C)C(=O)C1C (racemic) [Example 49, 4-(2-methoxyethyl)-1,3-dimethyl-6-{[3-(morpholin-4-ylsulphonyl)phenyl]amino}-3,4-dihydropyrido[2,3-b]pyrazin-2(1H)-one]",399,269,159,163,153
"COc1ccc(S(=O)(=O)N2CCOCC2)cc1Nc1ccc2c(n1)N(C1CCN(C)CC1)[C@H](C)C(=O)N2C [Example 25, (3R)-6-{[2-Methoxy-5-(morpholin-4-ylsulphonyl)phenyl]amino}-1,3-dimethyl-4-(1-methylpiperidin-4-yl)-3,4-dihydropyrido[2,3-b]pyrazin-2(1H)-one]",43,18,56,11,16
"COc1ccc(S(=O)(=O)N2CCOCC2)cc1Nc1ccc2c(n1)N(C1CCOCC1)[C@H](C)C(=O)N2C [Example 28, (3R)-6-{[2-Methoxy-5-(morpholin-4-ylsulphonyl)phenyl]amino}-1,3-dimethyl-4-(tetrahydro-2H-pyran-4-yl)-3,4-dihydropyrido[2,3-b]pyrazin-2(1H)-one]",30,21,53,18,14
"C[C@@H]1C(=O)N(C)c2ccc(Nc3cccc(S(=O)(=O)N4CCCC4)c3)nc2N1C1CCN(C)CC1 [Example 24, (3R)-1,3-Dimethyl-4-(1-methylpiperidin-4-yl)-6-{[3-(pyrrolidin-1-ylsulphonyl)phenyl]amino}-3,4-dihydropyrido[2,3-b]pyrazin-2(1H)-one]",112,20,55,11,13
"C[C@@H]1C(=O)N(C)c2ccc(Nc3cccc(S(=O)(=O)N[C@H]4CC[C@H](N5CCN(CC6CC6)CC5)CC4)c3)nc2N1C1CCN(C(=O)OC(C)(C)C)CC1 [Example 52, tert-butyl 4-[(3R)-6-{[3-({trans-4-[4-(cyclo-propylmethyl)piperazin-1-yl]cyclohexyl}-sulphamoyl)phenyl]amino}-1,3-dimethyl-2-oxo-2,3-dihydropyrido[2,3-b]pyrazin-4(1H)-yl]piperidine-1-carboxylate]",569,180,86,133,147
"COc1ccc(S(=O)(=O)N2CCN(C)CC2)cc1Nc1ccc2c(n1)N(C1CCOCC1)[C@H](C)C(=O)N2C [Example 40, (3R)-6-({2-methoxy-5-[(4-methylpiperazin-1-yl)sulphonyl]phenyl}-amino)-1,3-dimethyl-4-(tetrahydro-2H-pyran-4-yl)-3,4-dihydropyrido[2,3-b]pyrazin-2(1H)-one]",314,98,52,73,56
"C[C@@H]1C(=O)N(C)c2ccc(Nc3cccc(S(=O)(=O)N(C)C)c3)nc2N1C1CCN(C)CC1 [Example 41, 3-{[(3R)-1,3-dimethyl-4-(1-methylpiperidin-4-yl)-2-oxo-1,2,3,4-tetrahydropyrido[2,3-b]pyrazin-6-yl]amino}-N,N-dimethylbenzene-sulphonamide]",52,22,43,17,21
"C[C@@H]1C(=O)N(C)c2ccc(Nc3cccc(S(=O)(=O)N4CCN(CC(F)(F)F)CC4)c3)nc2N1C1CCOCC1 [Example 37, (3R)-1,3-dimethyl-4-(tetrahydro-2H-pyran-4-yl)-6-[(3-{[4-(2,2,2-trifluoroethyl)piperazin-1-yl]sulphonyl}phenyl)-amino]-3,4-dihydropyrido-[2,3-b]pyrazin-2(1H)-one]",93,74,16,65,53

# More lines, main results first:
IC50 [3] [nM],IC50 [4] [nM],IC50 [5] [nM],SMILES,IC50 [1] [nM],IC50 [2] [nM]
613,378,103,"C[C@@H]1C(=O)N(C)c2ccc(Nc3cccc(S(N)(=O)=O)c3)nc2N1C1CCOCC1 [Example 58, 3-{[(3R)-1,3-dimethyl-2-oxo-4-(tetrahydro-2H-pyran-4-yl)-1,2,3,4-tetrahydropyrido[2,3-b]pyrazin-6-yl]amino}-benzenesulphonamide]",268,299
> 20000,> 10000,188,"C[C@@H]1C(=O)N(C)c2ccc(Nc3cccc(C(=O)N[C@H]4CC[C@H](N5CCN(CC6CC6)CC5)CC4)c3)nc2N1C1CCNCC1 [Example 131, N-{trans-4-[4-(cyclo-propylmethyl)piperazin-1-yl]cyclohexyl}-3-{[(3R)-1,3-dimethyl-2-oxo-4-(piperidin-4-yl)-1,2,3,4-tetrahydropyrido[2,3-b]pyrazin-6-yl]amino}benzamide]",> 20000,> 20000
1840,396,94,"C[C@@H]1C(=O)N(C)c2ccc(Nc3cccc(S(=O)(=O)N4CC5(CCC5)C4)c3)nc2N1C1CCNCC1 [Example 122, (3R)-6-{[3-(2-Azaspiro[3.3]hept-2-ylsulphonyl)phenyl]amino}-1,3-dimethyl-4-(piperidin-4-yl)-3,4-dihydropyrido[2,3-b]pyrazin-2(1H)-one]",493,712
> 20000,> 10000,990,"C[C@@H]1C(=O)N(C)c2ccc(Nc3cccc(C(=O)N(C)C)c3)cc2N1C1CCNCC1 [Example 133, 3-{[(3R)-1,3-dimethyl-2-oxo-4-(piperidin-4-yl)-1,2,3,4-tetrahydroquinoxalin-6-yl]amino}-N,N-dimethylbenzamide]",2010,> 10000
2500,140,62,"C[C@@H]1C(=O)N(C)c2ccc(Nc3cccc(S(=O)(=O)N(C)C)c3)nc2N1C1CCNCC1 [Example 123, 3-{[(3R)-1,3-dimethyl-2-oxo-4-(piperidin-4-yl)-1,2,3,4-tetrahydropyrido[2,3-b]pyrazin-6-yl]amino}-N,N-dimethylbenzene-sulphonamide]",169,218
> 10000,383,44,"C[C@@H]1C(=O)N(C)c2ccc(Nc3cccc(S(=O)(=O)N4CCN(C)CC4)c3)nc2N1C1CCNCC1 [Example 125, (3R)-1,3-dimethyl-6-({3-[(4-methylpiperazin-1-yl)sulphonyl]phenyl}amino)-4-(piperidin-4-yl)-3,4-dihydropyrido[2,3-b]pyrazin-2(1H)-one]",719,2260
